Tested on: HT-29 cells
Experiment: HT-29 cytotoxicity assay (resazurin), with or without IFN-γ pretreatment
Type: cell-based, human
Details: IFN-γ treatment alone (data not shown)
Method: HT-29 cells (ATCC HTB-38) were cultured in McCoy's 5a Medium with 25 mM HEPES and supplemented with 10% fetal calf serum, 1× nonessential amino acids, 2 mM L-glutamine, 1 mM sodium pyruvate, 100 U/ml penicillin/100 ug/ml streptomycin (complete medium) at 37° C. in a humidified 5% CO2 cabinet. The cellular monolayer was washed with PBS and adherent cells were removed by treatment with 0.25% typsin/0.05% EDTA. The cells were collected by centrifugation and resuspended in complete medium. Cell number and viability was determined by Trypan Blue exclusion staining.
Duplicate plates of HT-29 cells were prepared by seeding cells into clear bottom, black walled 96 well tissue culture treated microplates (Corning 3904) at 5000 cells/well in a volume of 150 μl per well. […] Reduction of resazurin due to metabolic activity causes the dye to change from a non-fluorescent to fluorescent product that can be measured at 530 nm excitation and 590 nm emission wavelengths. Relative Fluorescent Units (RFU) was measured in a Fluoroskan Ascent microplate fluorometer (Thermo/Labsystems) in a bottom-read mode with excitation at 530 nm and emission at 590 nm. […]
Extracts that scored positive in the primary screen were evaluated for tumor cell death in a dose-dependent cytotoxicity assay. […] Inhibition of cellular growth was determined using resazurin indicator dye as described above. […]

## IFN-γ: recombinant human IFN-γ (R & D Systems), sensitizing agent
  growth inhibitory effect on HT-29 cells: no growth inhibitory effect

Reference: patent US20070037205A1, “Methods and apparatus for cell based screening” (priority 2001, published 2007)
